Measurements taken from patent publication US20260042774A1, “CAMPTOTHECIN-7-ETHYLAMINE DERIVATIVE, PREPARATION METHOD THEREFOR, AND USE THEREOF” (HANGZHOU ADCORIS BIOPHARMA CO., LTD, priority 2022, published 2026).
Like-named read-outs stand apart in the source and are kept apart here.

Tests used:
Type in all cases: cell-based
[1] = tested on: Human esophageal cancer cells OE33; assay: Tumor cell growth inhibitory activity (CCK-8), OE33
Experimental: (§1) Human esophageal cancer cells OE33 (human breast adenocarcinoma cells SK-BR-3, or human gastric cancer cells NCI-N87) was cultured in RPMI1640 (Cellmax) supplemented with 10% fetal bovine serum (Cellmax). Cells in the exponential growth phase were diluted to a concentration of 1×10^5 cells/mL by culture medium and added to 96-well cell culture plates at 100 μL per well, then returned back and incubated overnight in a 37° C. incubator with 5% CO2. On the following day, the compounds were diluted to concentrations of 10000 nM, 2000 nM, 400 nM, 80 nM, 16 nM, 3.2 nM, 0.64 nM, and 0.13 nM by culture medium and the diluted compounds were added to the 96-well cell culture plates at 2 μL per well, with three replicate wells for each concentration. Negative control and blank control groups without addition of compounds were added with 2 μL of the dilution liquid per well. After the addition of the compounds, the plates were returned back to the 37° C. incubator with 5% CO2 to continue the incubation for 72 h. After the incubation, the cell culture plates were removed, and the culture medium was aspirated using a pipette. Then, 100 μL of culture medium containing 10% CCK-8 was added to each well, and the plates were incubated at 37° C. for 3 h. After the incubation, the plates were removed, kept in the dark, and placed in an ELISA plate. Absorbance was measured at 630 nm as the reference wavelength and 450 nm as the test wavelength. The IC50 values (Table 2) were calculated using the four-parameter logistic regression method in GraphPad.

[2] = tested on: human breast adenocarcinoma cells SK-BR-3; assay: Tumor cell growth inhibitory activity (CCK-8), SK-BR-3
Experimental: as §1

[3] = tested on: human gastric cancer cells NCI-N87; assay: Tumor cell growth inhibitory activity (CCK-8), NCI-N87
Experimental: as §1

NCI-H1975 = assay: Tumor cell growth inhibitory activity, NCI-H1975
MDA-MB-231 = assay: Tumor cell growth inhibitory activity, MDA-MB-231
[4] = read-out: IC50 (nM) for inhibiting the growth of tumor cells, OE33, OE33 cells, 72 h incubation, CCK-8
[5] = read-out: IC50 (nM) for inhibiting the growth of tumor cells, SK-BR-3, SK-BR-3 cells, 72 h incubation, CCK-8
[6] = read-out: IC50 (nM) for inhibiting the growth of tumor cells, NCI-N87, NCI-N87 cells, 72 h incubation, CCK-8
[7] = Homo sapiens, NCI-H1975, read-out: IC50 (nM) for inhibiting the growth of tumor cells, NCI-H1975, NCI-H1975 cells
[8] = Homo sapiens, MDA-MB-231, read-out: IC50 (nM) for inhibiting the growth of tumor cells, MDA-MB-231, MDA-MB-231 cells
[9] = Homo sapiens, OE33, 72 h, read-out: IC50 (nM) for inhibiting the growth of tumor cells, OE33, OE33 cells, 72 h incubation, CCK-8
[10] = Homo sapiens, SK-BR-3, 72 h, read-out: IC50 (nM) for inhibiting the growth of tumor cells, SK-BR-3, SK-BR-3 cells, 72 h incubation, CCK-8
[11] = Homo sapiens, NCI-N87, 72 h, read-out: IC50 (nM) for inhibiting the growth of tumor cells, NCI-N87, NCI-N87 cells, 72 h incubation, CCK-8
[12] = Homo sapiens, OE33 cells, 72 h incubation, CCK-8, read-out: IC50 (nM) for inhibiting the growth of tumor cells, OE33
[13] = Homo sapiens, SK-BR-3 cells, 72 h incubation, CCK-8, read-out: IC50 (nM) for inhibiting the growth of tumor cells, SK-BR-3
[14] = Homo sapiens, NCI-N87 cells, 72 h incubation, CCK-8, read-out: IC50 (nM) for inhibiting the growth of tumor cells, NCI-N87
[15] = Homo sapiens, NCI-H1975 cells, read-out: IC50 (nM) for inhibiting the growth of tumor cells, NCI-H1975
[16] = Homo sapiens, MDA-MB-231 cells, read-out: IC50 (nM) for inhibiting the growth of tumor cells, MDA-MB-231

Row | SMILES | IC50 (NCI-H1975; [7]) [nM] | IC50 (MDA-MB-231; [8]) [nM] | IC50 [1, 9] [nM] | IC50 [2, 10] [nM] | IC50 [3, 11] [nM] | IC50 [1, 12] [nM] | IC50 [2, 13] [nM] | IC50 [3, 14] [nM] | IC50 (NCI-H1975; [15]) [nM] | IC50 (MDA-MB-231; [16]) [nM] | other results
1 | CC[C@@]1(O)C(=O)OCc2c1cc1n(c2=O)Cc2c-1nc1cc3c(cc1c2CCNCCOC)OCO3 [Compound 17, 7-(2-(2-Methoxyethyl)amino)ethyl-10,11-methylenedioxycamptothecin] | 9.09 | 103 | – | – | – | – | – | – | – | – | IC50 [1, 4]: 2.49 nM; IC50 [2, 5]: 6.53 nM; IC50 [3, 6]: 0.7 nM
2 | CC[C@@]1(O)C(=O)OCc2c1cc1n(c2=O)Cc2c-1nc1cc3c(cc1c2CCN[C@@H](C)CCO)OCO3 [Compound 18, 7-(2-((S)-4-Hydroxybutyl-2-yl)amino)ethyl-10,11-methylenedioxycamptothecin] | – | 446 | – | – | – | – | – | – | – | – | IC50 [1, 4]: 20.4 nM; IC50 [2, 5]: 17.1 nM; IC50 [3, 6]: 3.63 nM; IC50 (NCI-H1975; read-out: IC50 (nM) for inhibiting the growth of tumor cells, NCI-H1975, NCI-H1975 cells): 222 nM
3 | CC[C@@]1(O)C(=O)OCc2c1cc1n(c2=O)Cc2c-1nc1cc3c(cc1c2CCNCC(F)F)OCO3 [Compound 24, 7-(2-(2-Difluoroethyl)amino)ethyl-10,11-methylenedioxycamptothecin] | 15.6 | 78.2 | 0.56 | 2.96 | 0.24 | – | – | – | – | – | –
4 | CC[C@@]1(O)C(=O)OCc2c1cc1n(c2=O)Cc2c-1nc1cc3c(cc1c2CCNC1CCOCC1)OCO3 [Compound 25, 7-(2-(Tetrahydropyran-4-yl)amino)ethyl-10,11-methylenedioxycamptothecin] | 15.8 | 21.3 | 4.89 | 4.96 | 0.46 | – | – | – | – | – | –
5 | CC[C@@]1(O)C(=O)OCc2c1cc1n(c2=O)Cc2c-1nc1cc3c(cc1c2CCNC1CCC(OC)CC1)OCO3 (stereo partly drawn) [Compound 27, 7-(2-(4-Methoxycyclohexyl)amino)ethyl-10,11-methylenedioxycamptothecin] | 30.2 | 155 | 7.9 | 26.1 | 2.91 | – | – | – | – | – | –
6 | CC[C@@]1(O)C(=O)OCc2c1cc1n(c2=O)Cc2c-1nc1cc3c(cc1c2CCN[C@@H](C)CN=[N+]=[N-])OCO3 [Compound 29, 7-(2-((S)-Azidoisopropyl)amino)ethyl-10,11-methylenedioxycamptothecin] | 5.56 | 32.7 | 1.4 | 2 | 0.84 | – | – | – | – | – | –
7 | CC[C@@]1(O)C(=O)OCc2c1cc1n(c2=O)Cc2c-1nc1cc3c(cc1c2CCN(C(=O)CO)[C@@H](C)COC)OCO3 [Compound 30, 7-(2-(N-Hydroxyacetyl((S)-methoxyisopropyl))amino)ethyl-10,11-methylenedioxycamptothecin] | – | – | – | – | – | 6.47 | 6.23 | 1.56 | 15.4 | 98.5 | –
8 | CC[C@@]1(O)C(=O)OCc2c1cc1n(c2=O)Cc2c-1nc1cc3c(cc1c2CCN[C@@H]1CCOC1)OCO3 [Compound 34, 7-(2-(N-(R)-Tetrahydrofuran-3-ylamino))ethyl-10,11-methylenedioxycamptothecin] | 14.4 | 41.8 | 2.94 | 0.45 | 54.2 | – | – | – | – | – | –
9 | CC[C@@]1(O)C(=O)OCc2c1cc1n(c2=O)Cc2c-1nc1cc3c(cc1c2CCN[C@H]1CCOC1)OCO3 [Compound 35, 7-(2-(N-(S)-Tetrahydrofuran-3-ylamino))ethyl-10,11-methylenedioxycamptothecin] | 18.5 | 73.5 | 2.18 | 0.87 | 54 | – | – | – | – | – | –
10 | C[C@@]1(O)C(=O)OCc2c1cc1n(c2=O)Cc2c-1nc1cc3c(cc1c2CCNC(=O)C(F)F)OCO3 [Compound 36, 7-(2-Difluoroacetylamino)ethyl-10,11-methylenedioxycamptothecin] | – | – | – | – | – | 7.24 | 2.8 | 7.66 | 38.7 | 110 | –
11 | CC[C@@]1(O)C(=O)OCc2c1cc1n(c2=O)Cc2c-1nc1cc3c(cc1c2CCNCCOC)OCCO3 [Compound 42, 7-(2-(2-Methoxyethyl)amino)ethyl-10,11-ethylenedioxycamptothecin] | – | – | – | – | – | 9.95 | 18 | 9.96 | 26.6 | 94.8 | –
12 | CC[C@@]1(O)C(=O)OCc2c1cc1n(c2=O)Cc2c-1nc1cc3c(cc1c2CCNC1CCOCC1)OCCO3 [Compound 43, 7-(2-(Tetrahydropyran-4-yl)amino)ethyl-10,11-ethylenedioxycamptothecin] | – | – | – | – | – | 39.3 | 81.8 | 7.43 | 58.7 | 243 | –
13 | CC[C@@]1(O)C(=O)OCc2c1cc1n(c2=O)Cc2c-1nc1cc3c(cc1c2CCNC1CCC(OC)CC1)OCCO3 (stereo partly drawn) [Compound 44, 7-(2-(4-Methoxycyclohexyl)amino)ethyl-10,11-ethylenedioxycamptothecin] | – | – | – | – | – | 13.8 | 33.6 | 3.54 | 27.1 | 88.5 | –
14 | CC[C@@]1(O)C(=O)OCc2c1cc1n(c2=O)Cc2c-1nc1cc3c(cc1c2CCN[C@@H](C)COC)OCCO3 [Compound 45, 7-(2-((S)-Methoxyisopropyl)amino)ethyl-10,11-ethylenedioxycamptothecin] | – | – | – | – | – | 10.3 | 18.5 | 2.46 | 106 | 960 | –
15 | CC[C@@]1(O)C(=O)OCc2c1cc1n(c2=O)Cc2c-1nc1cc(F)c(C)c3c1c2[C@@H](NC(=O)CO)CC3 [Dxd, reference compound] | – | – | – | – | – | – | – | – | – | – | IC50 ([1]; OE33 cells, 72 h incubation, CCK-8, read-out: IC50 (nM) for inhibiting the growth of tumor cells, OE33): 7.01 nM; IC50 ([2]; SK-BR-3 cells, 72 h incubation, CCK-8, read-out: IC50 (nM) for inhibiting the growth of tumor cells, SK-BR-3): 9.69 nM; IC50 ([3]; NCI-N87 cells, 72 h incubation, CCK-8, read-out: IC50 (nM) for inhibiting the growth of tumor cells, NCI-N87): 2.48 nM; IC50 (NCI-H1975; NCI-H1975 cells, read-out: IC50 (nM) for inhibiting the growth of tumor cells, NCI-H1975): 286 nM; IC50 (MDA-MB-231; MDA-MB-231 cells, read-out: IC50 (nM) for inhibiting the growth of tumor cells, MDA-MB-231): 135 nM
